{"source": "patent US4442044A", "about": "“Process for preparing monoesters and diesters of N-alkyl substituted amino methyl phosphonic acid” (priority 1983, dated 1984)", "experiment_in_all_cases": "post-emergent herbicidal activity, greenhouse", "format_in_all_cases": "in vivo", "key": {"[1]": {"system": "Crabgrass", "conditions": "Table II", "in_short": "(§1)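 Post-emergence foliar spray at tabulated application rates, using aliquots of a 1.0% stock in acetone, THF or water plus ~0.4% emulsifier, applied to 2–3-week-old greenhouse plants. Plant injury was rated relative to controls roughly two and four weeks after treatment.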"}, "[2]": {"system": "Velvetleaf", "in_short": "as §1"}, "[3]": {"system": "Johnsongrass", "conditions": "Table I, 4 WAT", "in_short": "as §1"}, "[4]": {"system": "Rice", "conditions": "Table II", "in_short": "as §1"}, "[5]": {"system": "Panicum Spp", "conditions": "Table II", "in_short": "as §1"}, "[6]": {"system": "Barnyardgrass", "in_short": "as §1"}, "[7]": {"system": "Hemp Sesbania", "conditions": "Table II", "in_short": "as §1"}, "[8]": {"system": "Downy Brome", "in_short": "as §1"}, "[9]": {"system": "Quackgrass", "conditions": "Table I, 4 WAT", "in_short": "as §1"}}, "data": [{"smiles": "CC(C#N)OP(=O)(O)CNCC(=O)OCCCl", "note": "(stereo not shown) [Example 7, glycine, N-[[(1-cyanoethoxy)hydroxyphosphinyl]methyl], 2-chloroethyl ester]", "values": [{"measurement": "post-emergent herbicidal activity index", "setting": "[1]; 2 WAT, 0.01 kg/h", "result": "2 (50-74% control)"}, {"measurement": "post-emergent herbicidal activity index", "setting": "[1]; 4 WAT, 0.06 kg/h", "result": "3 (75-99% control)"}, {"measurement": "post-emergent herbicidal activity index", "setting": "[2]; Table I, 4 WAT, 5.6 kg/h", "result": "3 (75-99% control)"}, {"measurement": "post-emergent herbicidal activity index", "setting": "[2]; Table I, 4 WAT, 11.2 kg/h", "result": "3 (75-99% control)"}, {"measurement": "post-emergent herbicidal activity index", "setting": "[2]; Table II, 2 WAT, 0.01 kg/h", "result": "0 (0-24% control)"}, {"measurement": "post-emergent herbicidal activity index", "setting": "[2]; Table II, 4 WAT, 0.06 kg/h", "result": "1 (25-49% control)"}, {"measurement": "post-emergent herbicidal activity index", "setting": "[2]; Table II, 4 WAT, 0.28 kg/h", "result": "2 (50-74% control)"}, {"measurement": "post-emergent herbicidal activity index", "setting": "[2]; Table II, 4 WAT, 1.12 kg/h", "result": "2 (50-74% control)"}, {"measurement": "post-emergent herbicidal activity index", "setting": "[2]; Table II, 4 WAT, 5.6 kg/h", "result": "3 (75-99% control)"}, {"measurement": "post-emergent herbicidal activity index", "setting": "[3]; 5.6 kg/h", "result": "1 (25-49% control)"}, {"measurement": "post-emergent herbicidal activity index", "setting": "[3]; 11.2 kg/h", "result": "0 (0-24% control)"}, {"measurement": "post-emergent herbicidal activity index", "setting": "[4]; 2 WAT, 0.01 kg/h", "result": "0 (0-24% control)"}, {"measurement": "post-emergent herbicidal activity index", "setting": "[4]; 4 WAT, 0.06 kg/h", "result": "0 (0-24% control)"}, {"measurement": "post-emergent herbicidal activity index", "setting": "[4]; 4 WAT, 0.28 kg/h", "result": "1 (25-49% control)"}, {"measurement": "post-emergent herbicidal activity index", "setting": "[4]; 4 WAT, 1.12 kg/h", "result": "3 (75-99% control)"}, {"measurement": "post-emergent herbicidal activity index", "setting": "[4]; 4 WAT, 5.6 kg/h", "result": "3 (75-99% control)"}, {"measurement": "post-emergent herbicidal activity index", "setting": "[5]; 2 WAT, 0.01 kg/h", "result": "0 (0-24% control)"}, {"measurement": "post-emergent herbicidal activity index", "setting": "[5]; 4 WAT, 0.06 kg/h", "result": "3 (75-99% control)"}, {"measurement": "post-emergent herbicidal activity index", "setting": "[5]; 4 WAT, 0.28 kg/h", "result": "3 (75-99% control)"}, {"measurement": "post-emergent herbicidal activity index", "setting": "[5]; 4 WAT, 1.12 kg/h", "result": "4 (100% control)"}, {"measurement": "post-emergent herbicidal activity index", "setting": "[5]; 4 WAT, 5.6 kg/h", "result": "3 (75-99% control)"}, {"measurement": "post-emergent herbicidal activity index", "setting": "[6]; Table I, 4 WAT, 5.6 kg/h", "result": "3 (75-99% control)"}, {"measurement": "post-emergent herbicidal activity index", "setting": "[6]; Table I, 4 WAT, 11.2 kg/h", "result": "2 (50-74% control)"}, {"measurement": "post-emergent herbicidal activity index", "setting": "[6]; Table II, 2 WAT, 0.01 kg/h", "result": "0 (0-24% control)"}, {"measurement": "post-emergent herbicidal activity index", "setting": "[6]; Table II, 4 WAT, 0.06 kg/h", "result": "2 (50-74% control)"}, {"measurement": "post-emergent herbicidal activity index", "setting": "[6]; Table II, 4 WAT, 0.28 kg/h", "result": "2 (50-74% control)"}, {"measurement": "post-emergent herbicidal activity index", "setting": "[6]; Table II, 4 WAT, 1.12 kg/h", "result": "3 (75-99% control)"}, {"measurement": "post-emergent herbicidal activity index", "setting": "[6]; Table II, 4 WAT, 5.6 kg/h", "result": "3 (75-99% control)"}, {"measurement": "post-emergent herbicidal activity index", "setting": "[7]; 4 WAT, 0.06 kg/h", "result": "0 (0-24% control)"}, {"measurement": "post-emergent herbicidal activity index", "setting": "[7]; 4 WAT, 0.28 kg/h", "result": "3 (75-99% control)"}, {"measurement": "post-emergent herbicidal activity index", "setting": "[7]; 4 WAT, 1.12 kg/h", "result": "2 (50-74% control)"}, {"measurement": "post-emergent herbicidal activity index", "setting": "[7]; 4 WAT, 5.6 kg/h", "result": "4 (100% control)"}, {"measurement": "post-emergent herbicidal activity index", "setting": "[8]; Table I, 4 WAT, 5.6 kg/h", "result": "2 (50-74% control)"}, {"measurement": "post-emergent herbicidal activity index", "setting": "[8]; Table I, 4 WAT, 11.2 kg/h", "result": "2 (50-74% control)"}, {"measurement": "post-emergent herbicidal activity index", "setting": "[8]; Table II, 2 WAT, 0.01 kg/h", "result": "0 (0-24% control)"}, {"measurement": "post-emergent herbicidal activity index", "setting": "[8]; Table II, 4 WAT, 0.06 kg/h", "result": "1 (25-49% control)"}, {"measurement": "post-emergent herbicidal activity index", "setting": "[8]; Table II, 4 WAT, 0.28 kg/h", "result": "2 (50-74% control)"}, {"measurement": "post-emergent herbicidal activity index", "setting": "[8]; Table II, 4 WAT, 1.12 kg/h", "result": "2 (50-74% control)"}, {"measurement": "post-emergent herbicidal activity index", "setting": "[8]; Table II, 4 WAT, 5.6 kg/h", "result": "3 (75-99% control)"}, {"measurement": "post-emergent herbicidal activity index", "setting": "[9]; 5.6 kg/h", "result": "2 (50-74% control)"}, {"measurement": "post-emergent herbicidal activity index", "setting": "[9]; 11.2 kg/h", "result": "0 (0-24% control)"}]}, {"smiles": "CC(C#N)OP(=O)(O)CNCC(=O)OCc1ccccc1", "note": "(stereo not shown) [Example 10, glycine, N-[[(1-cyanoethoxy)hydroxyphosphinyl]methyl]-,phenylmethyl ester]", "values": [{"measurement": "post-emergent herbicidal activity index", "setting": "[1]; 2 WAT, 0.011 kg/h", "result": "0 (0-24% control)"}, {"measurement": "post-emergent herbicidal activity index", "setting": "[1]; 2 WAT, 0.056 kg/h", "result": "1 (25-49% control)"}, {"measurement": "post-emergent herbicidal activity index", "setting": "[1]; 4 WAT, 0.28 kg/h", "result": "4 (100% control)"}, {"measurement": "post-emergent herbicidal activity index", "setting": "[1]; 4 WAT, 1.12 kg/h", "result": "4 (100% control)"}, {"measurement": "post-emergent herbicidal activity index", "setting": "[1]; 4 WAT, 5.6 kg/h", "result": "4 (100% control)"}, {"measurement": "post-emergent herbicidal activity index", "setting": "[2]; Table I, 4 WAT, 5.6 kg/h", "result": "3 (75-99% control)"}, {"measurement": "post-emergent herbicidal activity index", "setting": "[2]; Table I, 4 WAT, 11.2 kg/h", "result": "3 (75-99% control)"}, {"measurement": "post-emergent herbicidal activity index", "setting": "[2]; Table II, 2 WAT, 0.011 kg/h", "result": "0 (0-24% control)"}, {"measurement": "post-emergent herbicidal activity index", "setting": "[2]; Table II, 2 WAT, 0.056 kg/h", "result": "0 (0-24% control)"}, {"measurement": "post-emergent herbicidal activity index", "setting": "[2]; Table II, 4 WAT, 0.28 kg/h", "result": "1 (25-49% control)"}, {"measurement": "post-emergent herbicidal activity index", "setting": "[2]; Table II, 4 WAT, 1.12 kg/h", "result": "1 (25-49% control)"}, {"measurement": "post-emergent herbicidal activity index", "setting": "[2]; Table II, 4 WAT, 5.6 kg/h", "result": "1 (25-49% control)"}, {"measurement": "post-emergent herbicidal activity index", "setting": "[3]; 5.6 kg/h", "result": "0 (0-24% control)"}, {"measurement": "post-emergent herbicidal activity index", "setting": "[3]; 11.2 kg/h", "result": "1 (25-49% control)"}, {"measurement": "post-emergent herbicidal activity index", "setting": "[4]; 2 WAT, 0.011 kg/h", "result": "0 (0-24% control)"}, {"measurement": "post-emergent herbicidal activity index", "setting": "[4]; 2 WAT, 0.056 kg/h", "result": "0 (0-24% control)"}, {"measurement": "post-emergent herbicidal activity index", "setting": "[4]; 4 WAT, 0.28 kg/h", "result": "0 (0-24% control)"}, {"measurement": "post-emergent herbicidal activity index", "setting": "[4]; 4 WAT, 1.12 kg/h", "result": "1 (25-49% control)"}, {"measurement": "post-emergent herbicidal activity index", "setting": "[4]; 4 WAT, 5.6 kg/h", "result": "2 (50-74% control)"}, {"measurement": "post-emergent herbicidal activity index", "setting": "[5]; 2 WAT, 0.011 kg/h", "result": "0 (0-24% control)"}, {"measurement": "post-emergent herbicidal activity index", "setting": "[5]; 2 WAT, 0.056 kg/h", "result": "0 (0-24% control)"}, {"measurement": "post-emergent herbicidal activity index", "setting": "[5]; 4 WAT, 0.28 kg/h", "result": "3 (75-99% control)"}, {"measurement": "post-emergent herbicidal activity index", "setting": "[5]; 4 WAT, 1.12 kg/h", "result": "4 (100% control)"}, {"measurement": "post-emergent herbicidal activity index", "setting": "[5]; 4 WAT, 5.6 kg/h", "result": "4 (100% control)"}, {"measurement": "post-emergent herbicidal activity index", "setting": "[6]; Table I, 4 WAT, 5.6 kg/h", "result": "2 (50-74% control)"}, {"measurement": "post-emergent herbicidal activity index", "setting": "[6]; Table I, 4 WAT, 11.2 kg/h", "result": "3 (75-99% control)"}, {"measurement": "post-emergent herbicidal activity index", "setting": "[6]; Table II, 2 WAT, 0.011 kg/h", "result": "0 (0-24% control)"}, {"measurement": "post-emergent herbicidal activity index", "setting": "[6]; Table II, 2 WAT, 0.056 kg/h", "result": "0 (0-24% control)"}, {"measurement": "post-emergent herbicidal activity index", "setting": "[6]; Table II, 4 WAT, 0.28 kg/h", "result": "2 (50-74% control)"}, {"measurement": "post-emergent herbicidal activity index", "setting": "[6]; Table II, 4 WAT, 1.12 kg/h", "result": "2 (50-74% control)"}, {"measurement": "post-emergent herbicidal activity index", "setting": "[6]; Table II, 4 WAT, 5.6 kg/h", "result": "3 (75-99% control)"}, {"measurement": "post-emergent herbicidal activity index", "setting": "[7]; 2 WAT, 0.011 kg/h", "result": "0 (0-24% control)"}, {"measurement": "post-emergent herbicidal activity index", "setting": "[7]; 2 WAT, 0.056 kg/h", "result": "0 (0-24% control)"}, {"measurement": "post-emergent herbicidal activity index", "setting": "[7]; 4 WAT, 1.12 kg/h", "result": "1 (25-49% control)"}, {"measurement": "post-emergent herbicidal activity index", "setting": "[7]; 4 WAT, 5.6 kg/h", "result": "1 (25-49% control)"}, {"measurement": "post-emergent herbicidal activity index", "setting": "[8]; Table I, 4 WAT, 5.6 kg/h", "result": "2 (50-74% control)"}, {"measurement": "post-emergent herbicidal activity index", "setting": "[8]; Table I, 4 WAT, 11.2 kg/h", "result": "1 (25-49% control)"}, {"measurement": "post-emergent herbicidal activity index", "setting": "[8]; Table II, 2 WAT, 0.011 kg/h", "result": "0 (0-24% control)"}, {"measurement": "post-emergent herbicidal activity index", "setting": "[8]; Table II, 2 WAT, 0.056 kg/h", "result": "0 (0-24% control)"}, {"measurement": "post-emergent herbicidal activity index", "setting": "[8]; Table II, 4 WAT, 0.28 kg/h", "result": "1 (25-49% control)"}, {"measurement": "post-emergent herbicidal activity index", "setting": "[8]; Table II, 4 WAT, 1.12 kg/h", "result": "2 (50-74% control)"}, {"measurement": "post-emergent herbicidal activity index", "setting": "[8]; Table II, 4 WAT, 5.6 kg/h", "result": "2 (50-74% control)"}, {"measurement": "post-emergent herbicidal activity index", "setting": "[9]; 5.6 kg/h", "result": "2 (50-74% control)"}, {"measurement": "post-emergent herbicidal activity index", "setting": "[9]; 11.2 kg/h", "result": "2 (50-74% control)"}]}]}
